Source: paper PMC12459522, “Design and synthesis of N-substituted-2-butyl-4-chloro-1H-imidazole derivatives as potential ACE inhibitors: in vitro study, in-silico analysis, and a multifaceted CSD-supported crystallographic investigation” (RSC Advances, 2025)

Each compound was assayed against ACE (Ovis aries, UniProt A0ACI6QSL6) (assay: In vitro colorimetric ACE inhibition assay (HHL substrate, hippuric acid release, 410 nm)). Conditions: not given.
Format: biochemical, sheep
Protocol: The ACE enzyme extract was preincubated with various concentrations of test compounds (4a–f) ranging from 250 nM to 25 μM, alongside the standard lisinopril (100–500 nM), for 10 minutes at 37 °C. The reaction was initiated by adding sodium borate buffer containing 0.3 M sodium chloride and 5 mM HHL, followed by a 30 minutes incubation at 37 °C. To terminate the reaction, 60 μL of 1 M HCl was added, which was subsequently followed by the addition of 120 μL of pyridine and 60 μL of benzene sulfonyl chloride for color development. The mixture was then cooled on ice for 5 minutes, and the resulting yellow color was measured spectrophotometrically at 410 nm. The reduction in HA concentration during the inhibition reaction, compared with that during the control reaction, was expressed as % inhibition, and the IC50 values were calculated via semilogarithmic plots. […] The IC50 values for the compounds and the standard lisinopril are presented in Table 1, and a bar graph comprising % inhibition is depicted in Fig. 2.
Sheep kidney acetone powder was prepared in the laboratory according to a modified protocol by Hector et al.[24] Fresh sheep kidney tissue was homogenized with prechilled acetone (1 : 3) and vacuum-filtered using a Buchner funnel. Re-extraction was performed until the solid residue turned colorless. This residue was air-dried and sifted to obtain a uniform powder, which was stored in an airtight container at 0–4 °C.
ACE was extracted from the prepared acetone powder as described by Jimsheena et al.[25] One gram of acetone powder was extracted via 10 mL of sodium borate buffer (0.05 M, pH 8.2) containing 0.3 M sodium chloride and 0.5% Triton X-100 at 4 °C for 18 hours. This extract was later centrifuged at 15 000g for 60 minutes at 4 °C. The supernatant was collected and dialyzed against the same buffer without Triton X-100 (3 L, the buffer was changed 3 times) for 24 hours. This extract was stored at −20 °C until further use. The specific activity was 0.8234 units per mg of protein.
ACE activity was calculated by measuring the release of hippuric acid (HA) from the substrate hippuryl-histidyl-leucine (HHL). One unit of ACE activity is defined as the amount of enzyme that releases 1 μmol of HA per minute at 37 °C and pH 8.2. The ACE enzyme extract was preincubated with different concentrations of the test compounds (250 nM to 25 μM) and a standard drug solution (lisinopril, 100–500 nM) for 10 minutes at 37 °C. The reaction was initiated by the addition of sodium borate buffer (0.05 M, pH 8.2) containing 0.3 M sodium chloride and 5 mM HHL. The mixture was incubated at 37 °C for 30 minutes, followed by the addition of 60 μL of 1 M HCl to stop the reaction. This was followed by the addition of 120 μL of pyridine and 60 μL of […] sulfonyl chloride (BSC) for color development. The mixture was mixed gently and cooled on ice for 5 minutes. The yellow color developed was measured spectrophotometrically at 410 nm.[25] The reduced HA concentration in the inhibition reaction compared with the control reaction is expressed as % inhibition, which was calculated as:% inhibition = 100 − (Atest/Acontrol) × 100,where Atest = absorbance of the test reaction and Acontrol = absorbance of the control reaction.

Sequence of ACE (A0ACI6QSL6 entry or part of it): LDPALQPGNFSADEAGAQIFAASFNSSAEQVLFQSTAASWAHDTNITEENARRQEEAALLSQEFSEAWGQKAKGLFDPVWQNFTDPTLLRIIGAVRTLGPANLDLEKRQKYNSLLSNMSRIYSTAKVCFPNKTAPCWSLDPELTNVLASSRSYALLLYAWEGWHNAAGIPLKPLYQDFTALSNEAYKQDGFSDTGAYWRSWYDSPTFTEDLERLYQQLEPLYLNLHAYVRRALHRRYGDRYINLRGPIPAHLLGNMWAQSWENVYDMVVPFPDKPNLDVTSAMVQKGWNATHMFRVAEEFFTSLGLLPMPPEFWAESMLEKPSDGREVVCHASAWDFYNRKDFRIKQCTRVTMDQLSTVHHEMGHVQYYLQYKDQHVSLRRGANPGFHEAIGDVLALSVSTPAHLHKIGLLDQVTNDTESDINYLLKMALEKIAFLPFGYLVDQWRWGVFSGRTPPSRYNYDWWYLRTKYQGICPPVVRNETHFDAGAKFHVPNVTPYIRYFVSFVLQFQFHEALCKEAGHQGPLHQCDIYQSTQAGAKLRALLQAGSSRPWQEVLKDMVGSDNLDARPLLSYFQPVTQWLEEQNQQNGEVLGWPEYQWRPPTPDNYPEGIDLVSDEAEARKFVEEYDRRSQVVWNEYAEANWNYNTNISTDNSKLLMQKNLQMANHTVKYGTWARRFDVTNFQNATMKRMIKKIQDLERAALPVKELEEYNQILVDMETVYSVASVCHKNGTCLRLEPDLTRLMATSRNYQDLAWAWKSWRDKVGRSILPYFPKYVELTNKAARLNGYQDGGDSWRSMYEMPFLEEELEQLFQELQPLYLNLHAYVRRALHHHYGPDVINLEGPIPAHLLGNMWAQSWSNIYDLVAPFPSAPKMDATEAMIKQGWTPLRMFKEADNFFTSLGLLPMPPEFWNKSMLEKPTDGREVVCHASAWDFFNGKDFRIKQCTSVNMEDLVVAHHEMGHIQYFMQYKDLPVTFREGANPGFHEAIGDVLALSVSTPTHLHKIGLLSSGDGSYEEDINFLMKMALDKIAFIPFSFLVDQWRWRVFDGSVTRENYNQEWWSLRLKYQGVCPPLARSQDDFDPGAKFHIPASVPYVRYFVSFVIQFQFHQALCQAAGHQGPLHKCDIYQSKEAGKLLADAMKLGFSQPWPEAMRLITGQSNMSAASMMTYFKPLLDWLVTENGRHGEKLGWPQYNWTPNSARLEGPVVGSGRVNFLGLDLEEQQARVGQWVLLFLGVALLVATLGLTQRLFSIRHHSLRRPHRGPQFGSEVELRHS

| Compound | IC50 [µM] |
| --- | --- |
| NCCCC[C@H](N[C@@H](CCc1ccccc1)C(=O)O)C(=O)N1CCC[C@H]1C(=O)O [Lisinopril, reference compound] | 0.3 ± 0.135 |

Same assay, conditions: sheep kidney ACE extract, HHL substrate, 37 °C, pH 8.2; read-out: IC50 against the ACE

| Compound | IC50 [µM] |
| --- | --- |
| 2-(2-Butyl-4-chloro-5-(hydroxymethyl)-1H-imidazol-1-yl)-1-(naphthalen-1-yl)ethan-1-ol [4d] | 2.12 ± 0.015 |
| CCCCc1nc(Cl)c(CO)n1CC(O)c1ccc(OC)cc1 (stereo not shown) [4a, 2-(2-Butyl-4-chloro-5-(hydroxymethyl)-1H-imidazol-1-yl)-1-(4-methoxyphenyl)ethan-1-ol] | 2.47 ± 0.102 |
| CCCCc1nc(Cl)c(CO)n1CC(O)c1ccc([N+](=O)[O-])cc1 (stereo not shown) [4b, 2-(2-Butyl-4-chloro-5-(hydroxymethyl)-1H-imidazol-1-yl)-1-(4-nitrophenyl)ethan-1-ol] | 1.31 ± 0.026 |
| CCCCc1nc(Cl)c(CO)n1CC(O)c1ccc(C)cc1 (stereo not shown) [4c, 2-(2-Butyl-4-chloro-5-(hydroxymethyl)-1H-imidazol-1-yl)-1-(p-tolyl)ethan-1-ol] | 1.56 ± 0.065 |
| CCCCc1nc(Cl)c(CO)n1CC(O)c1ccc(Cl)cc1 (stereo not shown) [4e, 2-(2-Butyl-4-chloro-5-(hydroxymethyl)-1H-imidazol-1-yl)-1-(4-chlorophenyl)ethan-1-ol] | 4.89 ± 0.068 |
| CCCCc1nc(Cl)c(CO)n1CC(O)c1ccc(F)cc1 (stereo not shown) [4f, 2-(2-Butyl-4-chloro-5-(hydroxymethyl)-1H-imidazol-1-yl)-1-(4-fluorophenyl)ethan-1-ol] | 7.57 ± 0.085 |
